Reference: PubChem BioAssay AID652144 (Broad Institute, 2013)
Records with an inconclusive call do not appear. Calls of active or inactive are those of the source. No rule for the calls is given here.

How the values were obtained:
Assay in all cases: viability reduction measured by resazurin – cell-based, Alamar Blue fluorescence, multiple timepoints, mechanism study for HRAS target identification project, profiling panel (AID 652144)
Details in all cases: Cancer/normal cell panel viability, 8-48 h
HT-29 = tested on: HT-29
SNB-75 = tested on: SNB-75
CCRF-CEM = tested on: CCRF-CEM
U-251 = tested on: U-251
LOX-IMVI = tested on: LOX-IMVI
HUVEC = tested on: HUVEC
SR = tested on: SR
HeLA = tested on: HeLA
C2C12 = tested on: C2C12
SNB-19 = tested on: SNB-19

SMILES	AC50 (HT-29)	AC50 (SNB-75) [nM]	AC50 (CCRF-CEM) [nM]	AC50 (U-251)	AC50 (LOX-IMVI) [nM]	outcome (HUVEC)	AC50 (SR) [nM]	outcome (HeLA)	outcome (HT-29)	outcome (C2C12)	outcome (SNB-75)	outcome (SNB-19)	outcome (CCRF-CEM)	outcome (U-251)	outcome (LOX-IMVI)	outcome (SR)	AC50 (HeLA)	AC50 (C2C12) [nM]	AC50 (SNB-19) [nM]	AC50 (HUVEC) [nM]
Cc1onc(C(=O)N2CCN(C(c3ccc(Cl)cc3)c3ccc(Cl)cc3)CC2)c1[N+](=O)[O-]	963 nM	687	144	> 70000 nM (inactive)	103	inactive	142	–	–	–	–	–	–	–	–	–	–	–	–	–
Cc1onc(C(=O)N2CCN(C(c3ccncc3)c3ccncc3)CC2)c1[N+](=O)[O-]	–	–	–	–	–	inactive	–	inactive	inactive	inactive	inactive	inactive	inactive	inactive	inactive	inactive	–	–	–	–
CC(C)(C)OC(=O)NCCOCCOCCOc1ccc(N(C(=O)CCl)C(C(=O)NCCc2ccccc2)c2cccs2)cc1Cl (centres undefined)	457 nM	686	86.5	1350 nM	83.4	–	95.1	–	–	–	–	–	–	–	–	–	650 nM	442	1720	13700
COc1ccc(N(C(=O)CCl)C(C(=O)NCCc2ccccc2)c2cccs2)cc1Cl (centres undefined)	162 nM	286	78.5	896 nM	40.5	–	61.8	–	–	–	–	–	–	–	–	–	547 nM	842	1170	8940
C#CCCCC(=O)NCCOCCOCCOc1ccc(N(C(=O)CCl)C(C(=O)NCCc2ccccc2)c2cccs2)cc1Cl (centres undefined)	2860 nM	3560	997	6810 nM	421	–	885	–	–	–	–	–	–	–	–	–	4490 nM	5420	4450	–
COC(=O)c1ccc([C@@H]2c3[nH]c4ccccc4c3C[C@@H](C(=O)OC)N2C(=O)CCl)cc1	177 nM	355	50.2	1060 nM	31	–	32.9	–	–	–	–	–	–	–	–	–	573 nM	101	–	–
CCC(=O)N(c1ccc(OC)c(Cl)c1)C(C(=O)NCCc1ccccc1)c1cccs1 (centres undefined)	> 70000 nM (inactive)	–	–	–	–	–	–	–	–	–	–	inactive	–	inactive	inactive	–	> 70000 nM (inactive)	–	–	–
